Entries after “also recorded” stand apart in the source; their conditions may differ. Like-named read-outs stand apart in the source and are kept apart here.
Legend:
m+/pΔS-U mice = experiment: RNA and protein expression in PWS mouse tissues; type: in vivo
Experimental: (§1) For testing long lasting drug effects, the 6 week-old m^S-EGFP/p^+ mice were treated daily by i.p. injection for seven consecutive days.
Western blot analysis was performed as previously described by Wang, et al., Molecular Autism 5, 30 (2014). Briefly, total protein was extracted from collected tissues (liver and brain) using modified RIPA buffer (1× PBS, 1% Triton X-100, 0.1% SDS, 2 mM EDTA, and protease inhibitors). SDS-PAGE resolved 25 μg of total proteins and they were transferred to polyvinylidene difluoride (PVDF) membranes. The PVDF membranes were blocked with BLOTTO (5% skim milk and 0.1% Tween-20 in 1× TBS buffer), and incubated with primary target antibodies, rabbit anti-Snrpn (Protein Tech, cat. no. 11070-1-AP) at 1:400, and rabbit anti-Ube3a (Bethyl Lab, cat. no. A300-352A-T) at 1:1,000 working concentration in BLOTTO at 4° C. overnight. The next day, following incubation with horseradish peroxidase-conjugated secondary antibodies, the membranes were incubated with a Pierce chemiluminescent substrate and exposed to X-ray film or imaged by AI600 (GE Healthcare Life Science).
(§2) For reverse-transcription PCR (RT-PCR) and quantitative real time RT-PCR (qRT-PCR), first total RNA was extracted from the fibroblasts and/or collected tissues (liver and brain) using Direct-zol RNA Miniprep kit (Zymo Research cat. no. R2070). 2 μg of total RNA was directly used for single strand cDNA synthesis with Superscript III reverse transcriptase (Invitrogen cat. no. 18080-093) according to the manufacturer's protocols. The conditions for RT-PCR were 95° C./5 min, 35-40 cycles of 95° C./30 sec, 56-60° C./60 sec, 72° C./60 sec. Quantification of target gene expression was performed in a LightCycler480 instrument (Roche) using SsoAdvanced Universal SYBR green Supermix (Biorad cat. no. 172-5271) according to the manufacturer's instructions. See Table 4 for primer sequences and conditions used for experiments for RT-PCR, qRT-PCR, bisulfite genomic sequencing, ChIP-qPCR, and chromatin accessibility assay.

human PWS fibroblasts = experiment: RT-PCR of 15q11-q13 genes in human PWS fibroblasts; type: cell-based; settings: for SNORD116 and its putative host transcript (116HG): 4 μM, 72 hours
Experimental: as §1, §2
FIG. 4a represents a schematic of genomic organization at the human chromosome 15q11-q13 region imprinting center. Because imprinting of SNPRN is known to be ubiquitous, the G9a-inhibitor effect on its activation is expected to be representative of all tissues and cell types.

H3K9me2 = settings: cited from earlier work
maternal Snrpn-EGFP MEFs = experiment: High content screening / concentration response of Snrpn-EGFP unsilencing; type: cell-based, mouse; settings: for EC50: read-out: half-maximal effective concentration (EC50), Snrpn-EGFP unsilencing; for activation of S-EGFP: mS-EGFP/p+ MEFs
Experimental: High content screenings of small molecules were performed as described in Huang, et al. Nature 481, 185-189 (2012). HCS comprises a 384-well high-content screen using primary mouse embryonic fibroblasts (MEFs) from m^S-EGFP/p^+, and searched for drug-like molecules that could unsilence the maternal S-EFGP allele. […] To perform the screen, primary MEFs were isolated from E12.5-14.5 embryos of m^S-EGFP/p^+ and cultured for 7 days in Dulbecco's modified Eagle's media supplemented with 10% fetal bovine serum, 100 Units/mL penicillin and 100 μg/mL streptomycin, at 37° C. and 5% CO2. One day before treatment with small molecules, 5,000 cells per well were plated onto 384-well plates. The cells were then treated with compounds (10 μM for 72 hours) from multiple small molecule libraries (FIG. 1f and FIG. 2). In total, 9,157 small molecules were screened in quadruplicate, normalizing values to vehicle-treatment (0.2% DMSO) (Table 1). The unsilencing of Snrpn-EGFP was determined three days after drug treatment. The immunofluorescence-processed fibroblasts were imaged for Hoechst and Alexa Fluor 488 fluorescence using a BD Pathway 855 high content imaging microscope. Antibody-enhanced Snrpn-EGPF fluorescence intensity was determined in drug-treated cells individually and normalized to cells treated with vehicle control. In order to identify potentially active compounds, an arbitrary cutoff of 125% was used where 100% indicates basal fluorescence in the vehicle-treated MEFs. Analysis was performed using Cell Profiler with custom macro and algorithms. Potential active drugs were defined as the increase in drug-mediated EGFP fluorescence consistently observed across quadruplicate wells and minimal or no cytotoxicity measured by Hoechst-stained nuclear structure (and the changes in total number of cells). After initial validation of all potential active drugs (e.g., to determine whether active compounds show inherent fluorescence, the wild-type fibroblasts were also treated), only effective hit compounds further validated in dose-response tests to determine relative efficacy (Emax) and potency (EC50). The dose-response results were analyzed by using Graphpad Prism (Graphpad Software). The calculated EC50 values (potencies) and estimated Emax (efficacy, Y-value top plateau) enabled comparative analyses of the relative potency and efficacy of the identified compounds.
Three days after drug treatment, the cells were fixed at 4% paraformaldehyde at room temperature for 10 min, followed by rinsing with 1× PBS. The cells were permeabilized with 0.5% Triton X-100 in 1× PBS at room temperature for 10 min, followed by blocking with 5% normal goat serum in 0.1% Triton X-100 in 1× PBS at room temperature for 30 minutes. Primary rabbit anti-GFP antibody (1:1000, Novus Biologicals cat. no. NB100-1770) was incubated at 4° C. overnight. The next day, the cells were rinsed with 1× PBS and incubated with goat anti-rabbit Alexa Fluor 488 (Invitrogen cat. no. A-11008) and Hoechst at room temperature. One hour after incubation, the cells were rinsed with 1× PBS and imaged for Hoechst and Alexa Fluor 488 fluorescence using a BD Pathway 855 high content imaging microscope.
It is not feasible to design a screen for noncoding RNA. Alternatively, SNRPN/Snprn is paternally expressed but maternally silenced in all human and mouse tissues. The allele-specific expression of human SNRPN is regulated by the PWS-IC, which also controls the expression of host transcripts for SnoRNAs, including the SNORD116 cluster between SNRPN and UBE3A. see Le Meur, E. et al., Dev. Biol. 286, 587-600 (2005). Thus, the Snrpn-EGFP fusion protein (hereafter S-EGFP) was used as a marker for high content screening (HCS). It was determined that small molecules that can unsilence S-EGFP would also be effective in reactivating the host transcript of SNORD116. […]

several cell lines = settings: cited from earlier work

COc1cc2c(NC3CCN(C(C)C)CC3)nc(N3CCC(F)(F)CC3)nc2cc1OCCCN1CCCC1 [UNC0642]
level of Ube3a-AS RNA (m+/pΔS-U mice; brain): not affected | expression of Snrpn and Snord116 (m+/pΔS-U mice; brain and liver, around P14, RT-PCR and qRT-PCR): readily detectable | Ube3a protein level (m+/pΔS-U mice; whole brain and cerebellum): not changed; also recorded: not affected | SNORD116 and its putative host transcript (116HG) (human PWS fibroblasts): effective | potency for H3K9me2 mark (H3K9me2; several cell lines): high potency | EC50 (maternal Snrpn-EGFP MEFs; Mus musculus, 72 h): 2700 nM | activation of S-EGFP (maternal Snrpn-EGFP MEFs): active | cell toxicity (several cell lines): low cell toxicity

COc1cc2c(NC3CCN(C(C)C)CC3)nc(C3CCCCC3)nc2cc1OCCCN1CCCC1 [UNC0638]
SNORD116 and its putative host transcript (116HG) (human PWS fibroblasts): effective | activation of SNRPN and SNORD116 transcripts (human PWS fibroblasts; 1-4 μM): effectively activated | reduction of the levels of H3K9me2 (H3K9me2; 250 nM, variety of cell lines): 60-80% | activation of S-EGFP (maternal Snrpn-EGFP MEFs): active | EC50 (maternal Snrpn-EGFP MEFs; maternal Snrpn-EGFP MEFs, 72 hours): 1600 nM

Source: patent US11278550B2, “Compositions and methods for the treatment of Prader-Willi syndrome” (Duke University, priority 2016, dated 2022)
